Assay [1] addresses T1, human CYP11B2 (Homo sapiens, UniProt P19099).
T1 construct: expressed in transfected cells
T1 sequence (P19099 25-503): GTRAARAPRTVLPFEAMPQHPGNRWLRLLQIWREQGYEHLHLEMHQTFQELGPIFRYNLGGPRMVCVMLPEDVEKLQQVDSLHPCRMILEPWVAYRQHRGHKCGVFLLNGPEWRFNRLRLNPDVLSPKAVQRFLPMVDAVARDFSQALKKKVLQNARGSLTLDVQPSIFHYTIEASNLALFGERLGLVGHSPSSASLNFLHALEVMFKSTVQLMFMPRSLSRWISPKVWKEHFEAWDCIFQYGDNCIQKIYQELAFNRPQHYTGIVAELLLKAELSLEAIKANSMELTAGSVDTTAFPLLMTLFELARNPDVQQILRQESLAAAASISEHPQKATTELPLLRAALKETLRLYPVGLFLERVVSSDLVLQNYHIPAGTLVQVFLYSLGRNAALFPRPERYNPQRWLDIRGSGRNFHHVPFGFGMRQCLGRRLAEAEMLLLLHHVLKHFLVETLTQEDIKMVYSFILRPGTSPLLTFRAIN
Nature of the assay: G-402 cellular enzyme assay, human CYP11B2 (aldosterone release, HTRF). The assay is classed as cell-based. The note with it: G-402 cells, 1 μM Deoxycorticosterone. The method, boiled down: (§1)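 Cellular format in stably transfected G-402 cells over 16 h. HTRF quantified aldosterone (CYP11B2, 1 μM deoxycorticosterone substrate) or cortisol (CYP11B1, 1 μM deoxycortisol substrate); EC50 obtained by fitting a 4-parameter sigmoid to dose–response data.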
On the technique in general: In TR-FRET formats the signal depends on donor and acceptor labels being close together.

The target of assay [2] is T2, human CYP11B1 (Homo sapiens, UniProt P15538).
T2 construct: expressed in transfected cells
T2 sequence (P15538 25-503): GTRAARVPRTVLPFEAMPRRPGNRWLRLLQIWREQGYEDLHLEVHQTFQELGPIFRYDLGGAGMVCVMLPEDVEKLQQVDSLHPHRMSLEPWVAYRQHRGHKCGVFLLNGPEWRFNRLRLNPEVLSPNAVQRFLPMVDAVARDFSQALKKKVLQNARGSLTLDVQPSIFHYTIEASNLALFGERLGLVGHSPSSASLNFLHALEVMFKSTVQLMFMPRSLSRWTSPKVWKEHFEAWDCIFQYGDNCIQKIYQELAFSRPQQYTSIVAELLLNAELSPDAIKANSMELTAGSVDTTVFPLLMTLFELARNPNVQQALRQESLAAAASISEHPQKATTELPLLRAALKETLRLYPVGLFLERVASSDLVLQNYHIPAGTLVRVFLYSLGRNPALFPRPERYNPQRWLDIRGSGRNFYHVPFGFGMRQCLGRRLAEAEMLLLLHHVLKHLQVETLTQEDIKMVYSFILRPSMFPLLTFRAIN
Nature of the assay: G-402 cellular enzyme assay, human CYP11B1 (cortisol release, HTRF). Type of assay: cell-based. Particulars: G-402 cells, 1 μM Deoxycortisol. The method, boiled down:
as §1

Turning to `O=Cc1cncc(N2CCc3cc(Cl)ccc3C2=O)c1` [Example 9, 5-(6-Chloro-1-oxo-3,4-dihydro-1H-isoquinolin-2-yl)-pyridine-3-carbaldehyde], the EC50 (as a rule, the concentration that produces a half-maximal response) was found to be 117 nM in assay [1] and 4740 nM in assay [2].
As for `CCC(=O)N[C@H]1CCc2c1cncc2N1C(=O)c2ccc(Cl)cc2[C@H]1C` (single isomer, unassigned) [Example 377, N-[(S or R)-4-((R or S)-5-Chloro-3-methyl-1-oxo-1,3-dihydro-isoindol-2-yl)-6,7-dihydro-5H-[2]pyrindin-7-yl]-propionamide], the results for the EC50 in assay [1] and in assay [2] were 3.4 nM and 448 nM, respectively.
On to `Cn1nccc1-c1cncc(N2C(=O)c3ccc(Cl)cc3C2(C)C)c1` [Example 418, 5-Chloro-3,3-dimethyl-2-[5-(2-methyl-2H-pyrazol-3-yl)-pyridin-3-yl]-2,3-dihydro-isoindol-1-one], for which the EC50 came to 4 nM in assay [1] and 62 nM in assay [2].
`CC1Cc2cc(Cl)ccc2C(=O)N1c1cncc(F)c1` (stereo not drawn) [Example 89, 6-Chloro-2-(5-fluoro-pyridin-3-yl)-3-methyl-3,4-dihydro-2H-isoquinolin-1-one]: the EC50 was determined as 272 nM in assay [1] and 16800 nM in assay [2].
With `O=C1c2ccc(Cl)cc2CCN1c1cncc(C2CC2)c1` [Example 66, 6-Chloro-2-(5-cyclopropyl-pyridin-3-yl)-3,4-dihydro-2H-isoquinolin-1-one], the values for the EC50 in assay [1] and in assay [2] were 6.9 nM and 69.7 nM, respectively.
For `O=C1c2ccc(Cl)cc2CCN1c1cnccc1C(O)c1ccc(F)cc1` (stereo not drawn) [Example 63, 6-Chloro-2-{4-[(4-fluoro-phenyl)-hydroxy-methyl]-pyridin-3-yl}-3,4-dihydro-2H-isoquinolin-1-one], in that order: 448 nM and 4430 nM.
For `CC(=O)N1CCC(Oc2cncc(N3C(=O)c4ccc(Cl)cc4C3(C)C)c2)C1` (stereo not drawn) [Example 441, 2-[5-(1-Acetyl-pyrrolidin-3-yloxy)-pyridin-3-yl]-5-chloro-3,3-dimethyl-2,3-dihydro-isoindol-1-one], the results for the EC50 in assay [1] and in assay [2] were 16.6 nM and 988 nM, respectively.
On to `CC(C)OCc1cncc(N2CCc3cc(Cl)ccc3C2=O)c1` [Example 194, 6-Chloro-2-(5-isopropoxymethyl-pyridin-3-yl)-3,4-dihydro-2H-isoquinolin-1-one], for which the EC50 was determined as 20.3 nM in assay [1] and 224 nM in assay [2].
Regarding `CN1CCN(Cc2cncc(N3CCc4cc(Cl)ccc4C3=O)c2)CC1` [Example 167, 6-Chloro-2-[5-(4-methyl-piperazin-1-ylmethyl)-pyridin-3-yl]-3,4-dihydro-2H-isuquinolin-1-one], the EC50 was 47.9 nM in assay [1] and 168 nM in assay [2].
For the compound `CC1(C)c2cc(Cl)ccc2C(=O)N1c1cncc(N2CCN(S(C)(=O)=O)CC2)c1` [Example 457, 5-Chloro-2-[5-(4-methanesulfonyl-piperazin-1-yl)-pyridin-3-yl]-3,3-dimethyl-2,3-dihydroisoindol-1-one], the half-maximal effective concentration (EC50) in assay [1] was determined as 1.8 nM; in assay [2], 298 nM.
For `CCS(=O)(=O)NCc1cncc(N2C(=O)c3ccc(F)cc3C2(C)C)c1` [Example 388, Ethanesulfonic acid [5-(6-fluoro-1,1-dimethyl-3-oxo-1,3-dihydro-isoindol-2-yl)-pyridin-3-ylmethyl]-amide], the EC50 was determined as 272 nM in assay [1] and 3970 nM in assay [2].
Regarding `CCC(=O)N1CC(Oc2cncc(N3C(=O)c4ccc(Cl)cc4C3(C)C)c2)C1` [Example 451, 5-Chloro-3,3-dimethyl-2-[5-(1-propionyl-azetidin-3-yloxy)-pyridin-3-yl]-2,3-dihydro-isoindol-1-one], the results for the EC50 in assay [1] and in assay [2] were 38.9 nM and 5330 nM, respectively.
Turning to `CC(=O)N1CC[C@@H](Oc2cncc(N3C(=O)c4ccc(Cl)cc4C3(C)C)c2)C1` [Example 442, 2-[5-((R)-1-Acetyl-pyrrolidin-3-yloxy)-pyridin-3-yl]-5-chloro-3,3-dimethyl-2,3-dihydro-isoindol-1-one], the EC50 in assay [1] is 5.6 nM; in assay [2], 427 nM.
For `O=C1c2ccc(Cl)cc2C(C2CC2)N1c1cncc(F)c1` (stereo not drawn) [Example 297, 5-Chloro-3-cyclopropyl-2-(5-fluoro-pyridin-3-yl)-2,3-dihydro-isoindol-1-one], in that order: 207 nM and 12800 nM.
Turning to `O=C1c2ccc(Cl)cc2CCN1c1cncc(CN2CC3(COC3)C2)c1` [Example 171, 6-Chloro-2-[5-(2-oxa-6-aza-spiro[3.3]hept-6-ylmethyl)-pyridin-3-yl]-3,4-dihydro-2H-isoquinolin-1-one], the values for the EC50 in assay [1] and in assay [2] were 17.2 nM and 88.9 nM, respectively.
Taken in the same sequence, the figures for `CC[C@@H]1c2cc(Cl)ccc2C(=O)N1c1cncc2c1CCC[C@@H]2NC(C)=O` (single isomer, unassigned) [Example 355, N-[(S or R)-4-((R or S)-5-Chloro-3-ethyl-1-oxo-1,3-dihydro-isoindol-2-yl)-5,6,7,8-tetrahydro-isoquinolin-8-yl]-acetamide] were 15.3 nM and 8170 nM.
Taken in the same sequence, the figures for `O=C1c2ccc(Cl)cc2CCN1c1cncc(Cc2c(F)cccc2Cl)c1` [Example 215, 6-Chloro-2-[5-(2-chloro-6-fluoro-benzyl)-pyridin-3-yl]-3,4-dihydro-2H-isoquinolin-1-one] were 29.6 nM and 137 nM.
For `O=C1c2ccc(Cl)cc2CCN1c1cncc(Cn2ncc3ccccc32)c1` [Example 182, 6-Chloro-2-(5-indazol-1-ylmethyl-pyridin-3-yl)-3,4-dihydro-2H-isoquinolin-1-one], the EC50 in assay [1] worked out at 27.5 nM; in assay [2] it was 306 nM.
For the compound `Cc1cncc(N2CCc3cc(Cl)ccc3C2=O)c1` [Example 8, 6-Chloro-2-(5-methyl-pyridin-3-yl)-3,4-dihydro-2H-isoquinolin-1-one], the values for the EC50 in assay [1] and in assay [2] were 44.9 nM and 807 nM, respectively.
For `COC(C)c1cncc(N2CCc3cc(Cl)ccc3C2=O)c1` (stereo not drawn) [Example 16, 6-Chloro-2-[5-(1-methoxy-ethyl)-pyridin-3-yl]-3,4-dihydro-2H-isoquinolin-1-one], the EC50 in assay [1] is 19.3 nM; in assay [2], 126 nM.
Regarding `O=C1c2ccc(Cl)cc2CCN1c1cncc(Cc2ccccc2C(F)(F)F)c1` [Example 213, 6-Chloro-2-[5-(2-trifluoromethyl-benzyl)-pyridin-3-yl]-3,4-dihydro-2H-isoquinolin-1-one], the results for the EC50 in assay [1] and in assay [2] were 39.1 nM and 278 nM, respectively.
Taken in the same sequence, the figures for `O=C1c2ccc(Cl)cc2CCN1c1cncc(-c2ccccc2C(F)(F)F)c1` [Example 242, 6-Chloro-2-[5-(2-trifluoromethyl-phenyl)-pyridin-3-yl]-3,4-dihydro-2H-isoquinolin-1-one] were 25.6 nM and 206 nM.
Taken in the same sequence, the figures for `CCS(=O)(=O)N1CC(Oc2cncc(N3C(=O)c4ccc(Cl)cc4C3(C)C)c2)C1` [Example 453, 5-Chloro-2-[5-(1-ethanesulfonyl-azetidin-3-yloxy)-pyridin-3-yl]-3,3-dimethyl-2,3-dihydro-isoindol-1-one] were 5.1 nM and 876 nM.
`CC1(C)c2cc(Cl)ccc2C(=O)N1c1cncc(Cn2cccn2)c1` [Example 379, 5-Chloro-3,3-dimethyl-2-(5-pyrazol-1-ylmethyl-pyridin-3-yl)-2,3-dihydro-isoindol-1-one]: the figures for the EC50 in assay [1] and in assay [2] were 25.8 nM and 370 nM, respectively.
`Cc1ncccc1C(=O)NCc1cncc(N2C(=O)c3ccc(Cl)cc3C2(C)C)c1` [Example 439, N-[5-(6-Chloro-1,1-dimethyl-3-oxo-1,3-dihydro-isoindol-2-yl)-pyridin-3-ylmethyl]-2-methyl-nicotinamide]: the results for the EC50 in assay [1] and in assay [2] were 119 nM and 6900 nM, respectively.
Turning to `Cn1cc(Cc2cncc(N3C(=O)c4ccc(Cl)cc4C3(C)C)c2)cn1` [Example 281, 5-Chloro-3,3-dimethyl-2-[5-(1-methyl-1H-pyrazol-4-ylmethyl)-pyridin-3-yl]-2,3-dihydro-isoindol-1-one], the EC50 came out at 0.4 nM in assay [1] and 3 nM in assay [2].
Regarding `O=C1CCCCN1Cc1cncc(N2CCc3cc(Cl)ccc3C2=O)c1` [Example 173, 6-Chloro-2-[5-(2-oxo-piperidin-1-ylmethyl)-pyridin-3-yl]-3,4-dihydro-2H-isoquinolin-1-one], the EC50 came out at 334 nM in assay [1] and 12300 nM in assay [2].

These data come from patent US9133158B2, “Bicyclic dihydroisoquinoline-1-one derivatives” (Hoffmann-La Roche Inc., priority 2011, dated 2015).
